In assay [1] the test system is osteosarcoma (HOS). Kind of assay: in vitro cytotoxicity, MTT assay. Format: cell-based, human. The settings on record: mean ± SD, at least three independent experiments.
Assay [2] relates to THP-1 human monocytic leukemia cell line. Briefly: relative cell viability, WST-1. The settings on record: 24 h, six independent experiments. Format: cell-based. As to the method: The THP-1 human monocytic leukemia cell line was purchased from the European Collection of Cell Cultures (ECACC, Salisbury, UK). Cells were cultured in an RPMI 1640 medium containing stabilized 2 mM L-glutamine (Biosera, Nuaille, France) supplemented with the mixture of antibiotics [100 U/mL penicillin and […] (Biosera, Nuaille, France)], and 10% foetal bovine serum (FBS) (HyClone, Marlborough, MA, USA). The cells were kept in an incubator at 37 °C in an atmosphere of air containing 5% CO2 and 100% humidity.
The relative cell viability of floating monocytes THP-1 were determined after 24 h incubation in a serum-free medium with compounds 1–5 dissolved in N,N-dimethylformamide (DMF) at increasing concentrations (20–0.125 µM) by the cell proliferation reagent WST-1 (Roche, Basel, Switzerland) according to the manufacturer’s manual, as we described previously. The IC50 values were calculated from resultant viability curves by four-parameter logistic (4PL) analysis.
(Tetrazolium assays rely on reduction of a dye to a coloured formazan, in cell work by metabolically active cells.)

Assay [3] relates to NF-κB/AP-1 in THP-1-XBlue-MD2-CD14 cells. Briefly: LPS-stimulated NF-κB/AP-1 activity, SEAP reporter. The format is cell-based, human. The settings on record: read 24 h after LPS; for inhibition of LPS-stimulated NF-κB/AP-1 activation: complexes applied at 200 nM and 50 nM, 1 h pre-treatment. On the procedure: The activity of transcription factors NF-κB/AP-1 was evaluated using the THP-1-XBlue^TM-MD2-CD14 cell line [obtained from Invivogen (San Diego, CA, USA)], expressing an NF-κB/AP-1-inducible secreted embryonic alkaline phosphatase (SEAP) reporter gene, as was described previously. The complexes 1–5 were applied to the cells at the concentrations of 200 nM and 50 nM, pomiferin (at 200 nM), and a reference drug prednisone at 1 μM, respectively. Lipopolysaccharide (LPS) from E. coli 0111:B4 (Sigma-Aldrich) dissolved in PBS was used to trigger an inflammation-like reaction. The activity of the SEAP was determined by Quanti-Blue^TM reagent (Invivogen, San Diego, CA, USA) according to the manufacturer’s instructions 24 h after lipopolysaccharide stimulation. The activity of NF-κB/AP-1 was determined spectrophotometrically using the FLUOstar Omega microplate reader (BMG Labtech, Ortenberg, Germany) at 655 nm and compared with that of the vehicle.

Assay [4] has as its system IκB and MAPKs p38, ERK1/2, JNK in THP-1 macrophages. Briefly: IκB and MAPK signalling pathways, Western blot. Format: cell-based, human. The settings on record: 200 nM, 1 h pre-treatment, 30 min after LPS. On the procedure:
Macrophages derived from THP-1 cells were used to evaluate the influence of tested complexes on the signalling pathway leading to activation of transcription factors NF-κB and AP-1. To differentiate THP-1 monocytes into macrophages, the cells were stimulated with phorbol myristate acetate (PMA), as described above. The level of inhibitor of NF-κB (IĸB) and phosphorylation (activation) of mitogen-activated protein kinases (MAPKs) p38, ERK1/2, and JNK was determined in a way similar to that described previously. Above mentioned proteins were detected by the following primary antibodies: anti-IĸB-α at the dilution 1:500 (Cell Signalling, Danvers, MA, USA; products No. 4814), anti-phospho-SAPK/JNK at the dilution 1:500 (Cell Signalling; products No. 4668), anti-p44/42 MAPK (ERK1/2) at the dilution 1:1000 (Cell Signalling; products No. 4695), anti-phospho-p44/42 MAPK (ERK1/2) at the dilution 1:1000 (Cell Signalling; products No. 4370), anti-p38 MAPK at the dilution 1:1000 (Cell Signalling; products No. 9212), anti-phospho-p38 MAPK antibodies at the dilution 1:1000 (Cell Signalling; products No. 4511), anti-SAPK/JNK at a dilution of 1:250 (Sigma-Aldrich, product No. SAB4200176), and anti-β-actin at a dilution of 1:5000 (Abcam, Cambridge, UK; product No. 8226). […] The amount of bound secondary antibody was determined using ECL reagent (Bio-Rad, Hercules, CA, USA). […]

The test system of assay [5] is NF-κB in differentiated THP-1 macrophages. Briefly: immunocytochemical analysis of NF-κB nuclear translocation. Format: cell-based, human. The conditions noted are these: 200 nM, 1 h pre-treatment, 1 h LPS (1 µg/mL), fluorescence microscopy. On the procedure:
To differentiate the THP-1 monocytes to macrophages, phorbol myristate acetate (PMA) was used at the final concentration of 50 ng/mL. The cells were split into 8-well cell culture glass slides (SPL, Gyeonggi-do, South Korea) at a concentration of 3 × 10^5 cells/300 µL/well. Monocytes were differentiated by PMA treatment for 24 h and then the medium was changed. Macrophages were washed with PBS, transferred into a serum-free medium and incubated for 2 h. After 1 h pre-treatment with 5 (200 nM), prednisone (200 nM) or 0.1% DMF (v/v) solution used as a control, NF-κB nuclear translocation was triggered by the addition of LPS (1 µg/mL). The macrophages were washed with PBS and fixed with 4% formaldehyde 1 h later. Permeabilization was performed using 0.1% v/v Triton X-100 (Merck). After blocking with 3% bovine serum albumin (BSA; Merck, Darmstadt, Germany) dissolved in PBS, the primary antibody anti-NF-κB p65 (Abcam, Cambridge, UK, product No. ab16502) was added at a concentration of 2.5 µg/mL and incubated at 4 °C overnight. Then a secondary anti-rabbit antibody labelled by Alexa Fluor 488® (Cell Signalling, Danvers, MA, USA) product No. 4412, dilution 1:1500) was applied in dark at 4 °C for 1 h. […] The NF-κB migration activity was evaluated by fluorescent microscopy after the nail polish cured using the fluorescence microscope IX73 (Olympus, Tokyo, Japan).

In assay [6] the test system is HuCCA-1, KB, HeLa and T47D cell lines. Also on record: method as in PMID 21922909. The settings on record: 48 h incubation, range over cell lines; cited from earlier work.
Assay [7] has as its system NF-κB. Set-up: method as in PMID 23947936. The settings on record: 1.25 µM; cited from earlier work.

The text below walks through data of PMC8305652, “Copper(II) Complexes Containing Natural Flavonoid Pomiferin Show Considerable In Vitro Cytotoxicity and Anti-inflammatory Effects” (International Journal of Molecular Sciences, 2021).

Turning to `CC(C)=CCc1c2c(c3occ(-c4ccc(O)c(O)c4)c(=O)c3c1[O-])C=CC(C)(C)O2.Cc1ccnc(-c2cc(C)ccn2)c1.O.O.O=[N+]([O-])[O-].[Cu+2]` [Complex 2, (3-(3,4-dihydroxyphenyl)-8,8-dimethyl-6-(3-methylbut-2-en-1-yl)-4H,8H-benzo[1,2-b:3,4-b′]dipyran-4-one-5-olato-κ^2O4:O5)(4,4′-dimethyl-2,2′-bipyridine–κ^2N:N)copper(II) nitrate dihydrate], the IC50 – broadly, the concentration that inhibits the measured activity by half – in assay [1] was 21.1 ± 1.6 µM; in assay [2] (serum-free medium), 7.9 ± 1.1 µM. Moreover, in assay [3], the “inhibition of LPS-stimulated NF-κB/AP-1 activation” value was “able to inhibit”. In assay [4], the “IκB and MAPK intracellular signalization” value was “did not affect the intracellular signalization”.
`CC(C)=CCc1c2c(c3occ(-c4ccc(O)c(O)c4)c(=O)c3c1[O-])C=CC(C)(C)O2.CO.O=[N+]([O-])[O-].[Cu+2].c1ccc(-c2ccnc3c2ccc2c(-c4ccccc4)ccnc23)cc1` [Complex 4, (3-(3,4-dihydroxyphenyl)-8,8-dimethyl-6-(3-methylbut-2-en-1-yl)-4H,8H-benzo[1,2-b:3,4-b′]dipyran-4-one-5-olato-κ^2O4:O5)(4,7-diphenyl-1,10-phenanthroline–κ^2N:N)copper(II) nitrate methanol solvate]: the half-maximal inhibitory concentration (IC50) in assay [2] (serum-free medium) is 3.3 ± 1.2 µM. Also, the “inhibition of LPS-stimulated NF-κB/AP-1 activation” value in assay [3] was “able to inhibit”. Moreover, the NF-κB nuclear translocation entry in assay [5] is “blocked the nuclear translocation”.
Turning to `CC(C)=CCc1c2c(c3occ(-c4ccc(O)c(O)c4)c(=O)c3c1O)C=CC(C)(C)O2` [pomiferin, 3-(3,4-dihydroxyphenyl)-5-hydroxy-8,8-dimethyl-6-(3-methylbut-2-ene-1-yl)-4H,8H-benzo[1,2-b:3,4-b′]dipyran-4-one], the IC50 in assay [1] (Homo sapiens) is 20.7 ± 0.5 µM; in assay [2] (Homo sapiens, THP-1, serum-free medium), over 10 µM. The “effect on LPS-stimulated NF-κB/AP-1 activity at 50 nM” value in assay [3] is “slightly increased”. In assay [6], the ED50 is 0.6 to 24 µM. Besides, the “NF-κB activation by inhibition of IκB degradation” value in assay [7] is “inhibited NF-κB activation”.
Consider “(3-(3,4-dihydroxyphenyl)-8,8-dimethyl-6-(3-methylbut-2-en-1-yl)-4H,8H-benzo[1,2-b:3,4-b′]dipyran-4-one-5-olato-κ^2O4:O5)(dipyrido[3,2-a:2′,3′-c]phenazine–κ^2N4:N5)copper(II) nitrate methanol solvate [Complex 5]”, for which the results for the IC50 in assay [1] and in assay [2] (serum-free medium) were 2.4 ± 0.9 µM and 3.1 ± 1.1 µM, respectively. In assay [3], the “effect on LPS-stimulated NF-κB/AP-1 activity at 50 nM” value is recorded as “active”. For the same molecule, the “inhibition of LPS-stimulated NF-κB/AP-1 activation” value in assay [3] was “able to inhibit”. Further, the NF-κB nuclear translocation result in assay [5] is recorded as “the NF-κB levels in the nucleus decreased”. For the same molecule, in assay [4], the “IκB and MAPK intracellular signalization” value is “did not affect the intracellular signalization”.
